# Test results reported in patent US10253002B2, “Compounds and methods of treating infections” (Neoculi Pty Ltd., priority 2013, dated 2019).
# Values joined by “and” are separate entries in the source; they are usually repeats but may differ in a detail not shown here. Identical values can stand only once. Like-named read-outs stand apart in the source and are kept apart here.
# Key:
# VRE = experiment: Broth microdilution MIC, Example 7 (NCL812 and analogues); assay type: cell-based, Enterococcus spp.; conditions: Enterococcus, VRE
# Summary of the method: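 Turbidity read visually and then at 600 nm defined the MIC (μg/ml), comparing drug-containing wells with a growth-control well lacking antimicrobial. Testing followed the CLSI broth microdilution method, in duplicate, using two strains per organism group.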
# [1] = system: Staphylococcus aureus T3-129 / Staphylococcus spp. MK1; experiment: Synergy studies, checkerboard method (FIC index); assay type: cell-based; conditions: S. aureus strain T3-29
smiles,measurement,setting,value
CC1(C)S[C@@H]2[C@H](NC(=O)[C@H](N)c3ccccc3)C(=O)N2[C@H]1C(=O)O [Ampicillin],MIC,"VRE; 24 h, read-out: MIC (μg/ml) at 24 hours, VRE 1, isolate VRE 1, 24 hours, 1st and 2nd replicate rows",0.5 µg/mL
same,MIC,"VRE; 24 h, read-out: MIC (μg/ml) at 24 hours, VRE 2, isolate VRE 2, 24 hours, 1st and 2nd replicate rows",0.25 µg/mL
same,MIC,"VRE; VRE 002 [H12c], Phase I, 1st, read-out: MIC",1 µg/mL
same,MIC,"VRE; VRE 002 [H12c], Phase I, 2nd, read-out: MIC",1 µg/mL
same,MIC,"VRE; VRE 002 [H12c], Phase II, 1st, read-out: MIC",0.25 µg/mL
same,MIC,"VRE; VRE 002 [H12c], Phase II, 2nd, read-out: MIC",0.25 µg/mL
same,MIC,"VRE; VRE 003 [H14t], Phase I, 1st, read-out: MIC",0.5 µg/mL
same,MIC,"VRE; VRE 003 [H14t], Phase I, 2nd, read-out: MIC",0.5 µg/mL
same,MIC,"VRE; VRE 003 [H14t], Phase II, 1st, read-out: MIC",0.25 µg/mL
same,MIC,"VRE; VRE 003 [H14t], Phase II, 2nd, read-out: MIC",0.25 µg/mL
same,MIC,"VRE; VRE 004 [H16c], Phase I, 1st, read-out: MIC",1 µg/mL
same,MIC,"VRE; VRE 004 [H16c], Phase I, 2nd, read-out: MIC",1 µg/mL
same,MIC,"VRE; VRE 004 [H16c], Phase II, 1st, read-out: MIC",0.25 µg/mL
same,MIC,"VRE; VRE 004 [H16c], Phase II, 2nd, read-out: MIC",0.25 µg/mL
same,MIC,"VRE; VRE 005 [H17c], Phase I, 1st, read-out: MIC",1 µg/mL
same,MIC,"VRE; VRE 005 [H17c], Phase I, 2nd, read-out: MIC",1 µg/mL
same,MIC,"VRE; VRE 005 [H17c], Phase II, 1st, read-out: MIC",0.25 µg/mL
same,MIC,"VRE; VRE 005 [H17c], Phase II, 2nd, read-out: MIC",0.25 µg/mL
same,MIC,"VRE; VRE 006 [H19t], Phase I, 1st, read-out: MIC",1 µg/mL
same,MIC,"VRE; VRE 006 [H19t], Phase I, 2nd, read-out: MIC",1 µg/mL
same,MIC,"VRE; VRE 006 [H19t], Phase II, 1st, read-out: MIC",0.25 µg/mL
same,MIC,"VRE; VRE 006 [H19t], Phase II, 2nd, read-out: MIC",0.25 µg/mL
same,MIC,"VRE; VRE 007 [H23c], Phase I, 1st, read-out: MIC",1 µg/mL
same,MIC,"VRE; VRE 007 [H23c], Phase I, 2nd, read-out: MIC",1 µg/mL
same,MIC,"VRE; VRE 007 [H23c], Phase II, 1st, read-out: MIC",0.25 µg/mL
same,MIC,"VRE; VRE 007 [H23c], Phase II, 2nd, read-out: MIC",0.25 µg/mL
same,MIC,"VRE; VRE 008 [H16c(dc)], Phase I, 1st, read-out: MIC",1 µg/mL
same,MIC,"VRE; VRE 008 [H16c(dc)], Phase I, 2nd, read-out: MIC",1 µg/mL
same,MIC,"VRE; VRE 008 [H16c(dc)], Phase II, 1st, read-out: MIC",1 µg/mL
same,MIC,"VRE; VRE 008 [H16c(dc)], Phase II, 2nd, read-out: MIC",1 µg/mL
same,MIC,"VRE; VRE 009 [H25c], Phase I, 1st, read-out: MIC",1 µg/mL
same,MIC,"VRE; VRE 009 [H25c], Phase I, 2nd, read-out: MIC",1 µg/mL
same,MIC,"VRE; VRE 009 [H25c], Phase II, 1st, read-out: MIC",1 µg/mL
same,MIC,"VRE; VRE 009 [H25c], Phase II, 2nd, read-out: MIC",1 µg/mL
same,MIC,"VRE; VRE 010 [H26c(w)], Phase I, 1st, read-out: MIC",2 µg/mL
same,MIC,"VRE; VRE 010 [H26c(w)], Phase I, 2nd, read-out: MIC",2 µg/mL
same,MIC,"VRE; VRE 010 [H26c(w)], Phase II, 1st, read-out: MIC",1 µg/mL
same,MIC,"VRE; VRE 010 [H26c(w)], Phase II, 2nd, read-out: MIC",1 µg/mL
same,MIC,"VRE; VRE 011 [H26c(dc)], Phase I, 1st, read-out: MIC",1 µg/mL
same,MIC,"VRE; VRE 011 [H26c(dc)], Phase I, 2nd, read-out: MIC",1 µg/mL
same,MIC,"VRE; VRE 011 [H26c(dc)], Phase II, 1st, read-out: MIC",0.5 µg/mL
same,MIC,"VRE; VRE 011 [H26c(dc)], Phase II, 2nd, read-out: MIC",0.5 µg/mL
same,MIC,"VRE; VRE 012 [H35t], Phase I, 1st, read-out: MIC",0.5 µg/mL
same,MIC,"VRE; VRE 012 [H35t], Phase I, 2nd, read-out: MIC",0.5 µg/mL
same,MIC,"VRE; VRE 012 [H35t], Phase II, 1st, read-out: MIC",0.25 µg/mL
same,MIC,"VRE; VRE 012 [H35t], Phase II, 2nd, read-out: MIC",0.5 µg/mL
same,MIC,"VRE; VRE 013 [H37c(w)], Phase I, 1st, read-out: MIC",2 µg/mL
same,MIC,"VRE; VRE 013 [H37c(w)], Phase I, 2nd, read-out: MIC",2 µg/mL
same,MIC,"VRE; VRE 013 [H37c(w)], Phase II, 1st, read-out: MIC",1 µg/mL
same,MIC,"VRE; VRE 013 [H37c(w)], Phase II, 2nd, read-out: MIC",1 µg/mL
same,MIC,"VRE; VRE 014 [H37c(g)], Phase I, 1st, read-out: MIC",1 µg/mL
same,MIC,"VRE; VRE 014 [H37c(g)], Phase I, 2nd, read-out: MIC",1 µg/mL
same,MIC,"VRE; VRE 014 [H37c(g)], Phase II, 1st, read-out: MIC",1 µg/mL
same,MIC,"VRE; VRE 014 [H37c(g)], Phase II, 2nd, read-out: MIC",1 µg/mL
same,FICI,[1]; FIC index of antibiotic with NCL812,0.75 and 0.53
same,FIC1,[1]; MIC of antibiotic in combination with NCL812/MIC of antibiotic alone,0.5
same,Result (interaction with NCL812),[1]; antibiotic with NCL812,NE (No effect (NE) was defined as 0.5<FICI<4)
